# Values of other authors, collected in patent publication US7288574B2, “Two-phase oxygenated solution and method of use” (priority 2001, dated 2007).
# Conditions: equilibrium with air (pO2=0.21) at 77° F.
smiles,measurement,value
O=O [oxygen],solubility limit of oxygen in water,approximately 8.3 mg/l
